The record followed here is patent publication US8501246B2, “Cosmetic composition containing lingonberry extract and its uses” (Beijing Gingko Group Biological Technology, Co., Ltd., priority 2007, dated 2013).

Structures are written as SMILES.

Format in all cases: cell-based
Assay [1] concerns B16 melanocytes. As to the kind of experiment: Inhibition rate of melanin content (melanogenesis) in B16 melanocytes. The note with it: Melanocyte, 72 hours, n = 4. Here is the method:
B16 melanocytes(from SIBCB) were cultivated with RPMI-1640 culture fluid containing about 10% newborn calf serum and penicillium—streptomycin under the condition of 37° C., 5% CO2. The melanocytes were digested with about 0.125% trypsin (Difco, US) to be passaged or tested when the cell fusion reached more than about 80%.
After the cells dissolved in strong base solution, melanin was dissolved and then the OD was tested. Melanin content was determined by Hosoi improved method. (Victoria M, Virador, Nobuhiko Kobayashi et al, A standardized protocol for assessing regulators of pigmentation. Analytical Biochemistry, 1999, 270:207˜219.)
B16 melanocytes (1×10^5) were cultivated in 6-well cultured plate. After 24 hours incubation the solution was changed and different kinds of tested substances in different concentration were added respectively. The lingonberry extract III was prepared by the method in example 3, other substances were all bought from market.
After 72 hours, reactants were washed by PBS for 2 times, dried by air-drying, dissolved into 400 μl 1N NaOH (containing 1% DMSO), heated at 80° C. for 1 hour and then cooled. The OD was tested by enzyme-linked immunosorbent assay instrument at 475 nm.
Calculated every tested agents' inhibition rate of melanin content using the following formula: inhibition rate of melanin content=[1−(OD of tested group/well cell density of tested group)/(OD of control group/well cell density of control group)]*100%
Experiment method was the same as example 7. The lingonberry extract I, II and III used as tested substance were prepared by the method in example 1, 2 and 3 respectively.

The target of assay [2] is T1, B16 melanocytes' tyrosinase (Mus musculus, UniProt P11344).
T1 construct: The cells were dissolved by 1% Troton X-100; host or cells: B16 melanocytes (melanoma cells)
T1 sequence (P11344 19-533): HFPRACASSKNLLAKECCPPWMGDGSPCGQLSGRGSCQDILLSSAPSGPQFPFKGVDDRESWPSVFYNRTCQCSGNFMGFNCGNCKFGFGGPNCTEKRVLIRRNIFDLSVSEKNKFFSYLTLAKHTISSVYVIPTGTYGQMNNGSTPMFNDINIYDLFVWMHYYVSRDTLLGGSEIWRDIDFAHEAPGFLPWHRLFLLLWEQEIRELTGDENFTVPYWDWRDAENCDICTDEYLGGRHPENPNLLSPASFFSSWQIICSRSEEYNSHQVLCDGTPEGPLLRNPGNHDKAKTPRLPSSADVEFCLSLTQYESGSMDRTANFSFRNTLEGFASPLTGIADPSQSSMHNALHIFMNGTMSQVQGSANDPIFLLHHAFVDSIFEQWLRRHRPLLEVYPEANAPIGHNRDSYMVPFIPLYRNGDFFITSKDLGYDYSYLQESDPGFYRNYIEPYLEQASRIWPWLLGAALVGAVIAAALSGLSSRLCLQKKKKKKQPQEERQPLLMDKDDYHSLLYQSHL
As to the kind of experiment: Inhibition rate of B16 melanocytes' tyrosinase activity (L-dopa oxidation, OD 475 nm). To be noted: 3 days, n = 6. The method, then: B16 melanocytes(from SIBCB) were cultivated with RPMI-1640 culture fluid containing 10% newborn calf serum and penicillium—streptomycin under the condition of about 37° C., 5% CO2. The melanocytes were digested with about 0.125% trypsin (Difco, US) to be passaged or tested when the cell fusion reached more than 80%.
Tyrosinase activity is determined by the speed of dopa being oxidized into dopaquinone. L-dopa was used as catalysis substrate. Optical density (OD) of dopaquinone was determined at 475 nm by improved Marlinez-Esparza method. (Ando H, Itoh A, Mishima Y et al., Correlation between the number of melanosomes, tyrosinase mRNA levels, and tyrosinase activity cultured murine melanoma cells in response to various melanogenesis regulatory agents. J Cell Physiol, 1995, 163: 608-614.). The higher of the OD, the stronger of the tyrosinase.
The lingonberry extract III was prepared by the method in example 3, other materials were all bought from market.
After 3 days of effects of tested substance, the supernatant was deserted and the remainder was washed for 3 times with pH 7.0 PBS after centrifuging at 1000 rpm for 5 min every time. The cells were dissolved by 1% Troton X-100 400 μl adding in every well of the cultured plate. 100 μl solution in every well was taken and then added into 96-well cultured plate. After pre-temperature at 37° C., 100 μl 1.7% L-dopa (sigma, US) was added into every well. The OD A value then was determined every 10 min within 1 hour at 475 nm and 37° C., using blank as zero adjustment.
Calculated every tested agents' inhibition rate of B16 melanocytes' tyrosinase activity using the following formula: inhibition rate of melanocytes' tyrosinase activity=(1−OD of tested group/OD of control group)*100%
Experiment method was the same as example 6. The lingonberry extract I, II and III used as tested substance were prepared by the method in example 1, 2 and 3 respectively.

Assay [3] deals with B16 melanocytes. As to the kind of experiment: MTT cell multiplication / cell survival ratio of B16 melanocytes. To be noted: blank = 100, n = 6. Here is the method: B16 melanocytes (from SIBCB) were cultivated with RPMI-1640 culture fluid containing about 10% newborn calf serum and penicillium—streptomycin under the condition of about 37° C., about 5% CO2. Digest the melanocytes with about 0.125% trypsin (Difco, US) when the cell fusion reached more than about 80%.
The activity of melanocytes multiplication was determined by measurement of […] (MTT). The B16 melanocytes at densities of about 1×10^5 were inoculated in 24-well cell cultured plate. The culture fluid was changed next day and the tested substances in different concentration were added individually: the lingonberry extract III prepared in example 3 (comprised anthocyanidin about 10%, OPC about 35% and resveratrol about 10%), arbutin bought from the market, and blank as control group.
After 20 hours cultivation and adding about 0.15 ml MTT, the cells were cultivated continuously for about 4 hours. Centrifuged at 3000 rpm for about 10 min and deserted the supernatant, cultivated cells in every well were added DMSO (about 1%) about 1 ml and shook for dissolving thoroughly. Then about 150 μl cultivated cells aspiration were added into 96-well cell cultured plate. The OD value of the aspiration was measured with MQX200 micro-plate spectrophotometer (Bio-Tek, US), at 570 nm excitation wave length and 630 nm reference wave length.
Calculated the inhibition ratio of tested agents on melanocytes using the following formula: melanocytes multiplication inhibition ratio=(1−OD of tested group/OD of control group)*100%
The experimental method was the same as example 4. The lingonberry extract III was prepared by the method in example 3, pine bark extract and grape seed extract were both bought from market, blank was used as control group.

A word on the inhibition: it is the relative decrease from the control value, in per cent. A high value points to a strong effect. For the compound `OC[C@H]1O[C@@H](Oc2ccc(O)cc2)[C@H](O)[C@@H](O)[C@@H]1O` [arbutin], the inhibition at 1 µg/mL with B16 melanocytes [1] (1 mg/L) was 7.27 ± 2.29%; in assay [2] (1 mg/L), 7.19%. Besides, the results for the inhibition at 5 µg/mL (in the assay on B16 melanocytes [1] (5 mg/L); in assay [2] (5 mg/L)) were 7.59 ± 0.35% and 10.4 ± 2.97%, respectively. Besides, the results for the inhibition at 10 µg/mL (in the assay on B16 melanocytes [1] (10 mg/L); in assay [2] (10 mg/L)) were 6.23 ± 0.86% and 20.5 ± 1.63%, respectively. In addition, the figures for the inhibition at 20 µg/mL (in the assay with B16 melanocytes [1] (20 mg/L); in assay [2] (20 mg/L)) were 10.8 ± 0.33% and 46.4 ± 2.53%, respectively. The inhibition at 30 µg/mL stood at 12.1 ± 1.3% in the assay with B16 melanocytes [1] (30 mg/L) and 53.3 ± 2.27% in assay [2] (30 mg/L). Further, the cell survival ratio in the assay on B16 melanocytes [3] (20 mg/L) turned out to be 110.72 ± 0.41%; with B16 melanocytes [3] (40 mg/L), 94.30 ± 0.45%; with B16 melanocytes [3] (60 mg/L), 91.74 ± 0.39%; in the assay with B16 melanocytes [3] (80 mg/L), 79.66 ± 1.08%.
